According to ChEMBL document CHEMBL4706479, “Novel Aryloxyethyl Derivatives of 1-(1-Benzoylpiperidin-4-yl)methanamine as the Extracellular Regulated Kinases 1/2 (ERK1/2) Phosphorylation-Preferring Serotonin 5-HT Receptor-Biased Agonists with Robust Antidepressant-like Activity” (J Med Chem, 2019):
The source made the active and inactive calls. The rule behind the calls is not given here.

Experiments:
[1] = Tmax in Wistar rat at […], po measured after 60 mins by HPLC analysis; assay type: ADME, organism-based; conditions: in vivo, dose 2.5 mg/kg
[2] = In vivo biased agonist activity at 5-HT1A receptor in rat prefrontal cortex assessed as serum concentration causing 50% increase in ERK1/2 phosphorylation level after oral administration measured 15 mins post drug administration
[3] = biological target: Alpha-1A adrenergic receptor (Homo sapiens) (UniProt P35348); experiment: Inhibition of adrenergic alpha-1A receptor (unknown origin) at 10 uM relative to control
[4] = biological target: Alpha-2A adrenergic receptor (Homo sapiens) (UniProt P08913); experiment: Inhibition of adrenergic alpha-2A receptor (unknown origin) at 10 uM relative to control
[5] = biological target: Beta-2 adrenergic receptor (Homo sapiens) (UniProt P07550); experiment: Inhibition of adrenergic beta2 receptor (unknown origin) at 10 uM relative to control
[6] = biological target: Cannabinoid receptor 2 (Homo sapiens) (UniProt P34972); experiment: Inhibition of cannabinoid receptor 2 (unknown origin) at 10 uM relative to control
[7] = biological target: D(1A) dopamine receptor (Homo sapiens) (UniProt P21728); experiment: Inhibition of dopamine D1 receptor (unknown origin) at 10 uM relative to control
D(2) dopamine receptor = D(2) dopamine receptor (Homo sapiens, UniProt P14416); experiment: Inhibition of dopamine D2S receptor (unknown origin) at 10 uM relative to control
[8] = biological target: Histamine H1 receptor (Homo sapiens) (UniProt P35367); experiment: Inhibition of histamine H1 receptor (unknown origin) at 10 uM relative to control
[9] = biological target: Muscarinic acetylcholine receptor M1 (Homo sapiens) (UniProt P11229); experiment: Inhibition of muscarinic M1 receptor (unknown origin) at 10 uM relative to control
[10] = biological target: Muscarinic acetylcholine receptor M4 (Homo sapiens) (UniProt P08173); experiment: Inhibition of muscarinic M4 receptor (unknown origin) at 1 uM relative to control
[11] = biological target: Mu-type opioid receptor (Homo sapiens) (UniProt P35372); experiment: Inhibition of mu opioid receptor (unknown origin) at 10 uM relative to control
[12] = biological target: Vasopressin V1a receptor (Homo sapiens) (UniProt P37288); experiment: Inhibition of vasopressin V1a receptor (unknown origin) at 10 uM relative to control
[13] = biological target: Acetylcholinesterase (Homo sapiens) (UniProt P22303); experiment: Inhibition of AChE (unknown origin) at 10 uM relative to control
[14] = biological target: 5-hydroxytryptamine receptor 1B (Homo sapiens) (UniProt P28222); experiment: Inhibition of 5-HT1B (unknown origin) at 10 uM relative to control
[15] = biological target: Sodium-dependent serotonin transporter (Homo sapiens) (UniProt P31645); experiment: Inhibition of serotonin transporter (unknown origin) at 10 uM relative to control
Homo sapiens [16] = species: Homo sapiens; experiment: Inhibition of NMDA glutamate receptor (unknown origin) at 10 uM relative to control
Homo sapiens [17] = species: Homo sapiens; experiment: Inhibition of L-type calcium channel dihydropyridine binding site (unknown origin) at 10 uM relative to control
Homo sapiens [18] = species: Homo sapiens; experiment: Inhibition of sodium channel site2 (unknown origin) at 10 uM relative to control
[19] = biological target: Tyrosine-protein kinase Lck (Homo sapiens) (UniProt P06239); experiment: Inhibition of LCK (unknown origin) at 10 uM relative to control
[20] = biological target: Prostaglandin G/H synthase 1 (Homo sapiens) (UniProt P23219); experiment: Inhibition of COX1 (unknown origin) at 10 uM relative to control
[21] = biological target: Prostaglandin G/H synthase 2 (Homo sapiens) (UniProt P35354); experiment: Inhibition of COX2 (unknown origin) at 10 uM relative to control
[22] = biological target: cGMP-inhibited 3',5'-cyclic phosphodiesterase 3A (Homo sapiens) (UniProt Q14432); experiment: Inhibition of PDE3A (unknown origin) at 10 uM relative to control
[23] = Intrinsic clearance in human liver microsomes at 0.1 uM; assay type: ADME, Microsome; conditions: read-out: CLH
[24] = Protein binding in human plasma; assay type: ADME, cell-free; conditions: read-out: PPB (converted)
[25] = biological target: 5-hydroxytryptamine receptor 2A (Homo sapiens) (UniProt P28223); experiment: Displacement of [3H]-ketanserin from human recombinant 5-HT2A receptor stably expressed in CHO-K1 cell membranes at 1 uM measured after 90 mins by microbeta2 scintillation counting analysis relative to control; conditions: Cell membrane
[26] = biological target: Muscarinic acetylcholine receptor M1 (Homo sapiens) (UniProt P11229); experiment: Displacement of [3H]-scopolamine from human recombinant muscarinic M1 receptor stably expressed in CHO-K1 cell membranes at 1 uM measured after 120 mins by microbeta2 scintillation counting analysis relative to control; conditions: Cell membrane
[27] = biological target: Histamine H1 receptor (Homo sapiens) (UniProt P35367); experiment: Displacement of [3H]-pyrilamine from human recombinant histamine H1 receptor stably expressed in CHO-K1 cell membranes at 1 uM measured after 60 mins by microbeta2 scintillation counting analysis relative to control; conditions: Cell membrane
[28] = In vivo biased agonist activity at 5-HT1A receptor in rat prefrontal brain cortex assessed as time required to cause maximum increase in ERK1/2 phosphorylation levels at […], po administered as single dose by Alphalisa assay; assay type: functional
[29] = Cmax in Wistar rat brain at […], po measured after 60 mins by HPLC analysis; assay type: ADME, organism-based; parameters: route oral, dose 2.5 mg/kg, time 60 min
[30] = Apparent volume of distribution during terminal phase in Wistar rat at […], po measured after 60 mins by HPLC analysis; assay type: ADME, organism-based; conditions: in vivo, dose 2.5 mg/kg, read-out: Vz/F
Rattus norvegicus [31] = experiment: Antidepressant-like activity in Wistar rat assessed as reduction in immobility time at […], po administered 15 mins prior to testing and measured for 5 mins test period by Porsolt-forced swim test; assay type: functional, organism-based; conditions: time 20.0 min
Rattus norvegicus [32] = experiment: Antidepressant-like activity in Wistar rat assessed as minimum effective dose causing reduction in immobility time after oral administration with compound 60 mins prior to testing and measured for 5 mins test period by Porsolt-forced swim test; assay type: functional; conditions: 1.083 h, time 65 min, read-out: MED
[33] = Effect on spontaneous locomotor activity in Wistar rat at 0.04 to […], po after 60 mins in presence of 5-HT1A antagonist WAY100635 by open field test; assay type: organism-based; conditions: in vivo, 1 h, dose 0.04-2.5 mg/kg

Sequence of Muscarinic acetylcholine receptor M1 (Homo sapiens) (P11229 whole entry): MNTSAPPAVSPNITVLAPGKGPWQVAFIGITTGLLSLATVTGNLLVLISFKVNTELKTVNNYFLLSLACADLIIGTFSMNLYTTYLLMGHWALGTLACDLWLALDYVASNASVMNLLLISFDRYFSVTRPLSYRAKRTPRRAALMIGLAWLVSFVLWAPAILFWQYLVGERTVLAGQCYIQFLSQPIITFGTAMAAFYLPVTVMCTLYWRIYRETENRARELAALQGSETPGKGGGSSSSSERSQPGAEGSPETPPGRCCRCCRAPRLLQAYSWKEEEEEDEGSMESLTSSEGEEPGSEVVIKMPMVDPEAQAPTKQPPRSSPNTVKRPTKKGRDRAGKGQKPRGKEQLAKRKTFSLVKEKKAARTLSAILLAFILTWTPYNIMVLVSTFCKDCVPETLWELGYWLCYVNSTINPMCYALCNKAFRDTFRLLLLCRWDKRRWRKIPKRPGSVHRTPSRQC
Sequence of Histamine H1 receptor (Homo sapiens) (P35367 whole entry): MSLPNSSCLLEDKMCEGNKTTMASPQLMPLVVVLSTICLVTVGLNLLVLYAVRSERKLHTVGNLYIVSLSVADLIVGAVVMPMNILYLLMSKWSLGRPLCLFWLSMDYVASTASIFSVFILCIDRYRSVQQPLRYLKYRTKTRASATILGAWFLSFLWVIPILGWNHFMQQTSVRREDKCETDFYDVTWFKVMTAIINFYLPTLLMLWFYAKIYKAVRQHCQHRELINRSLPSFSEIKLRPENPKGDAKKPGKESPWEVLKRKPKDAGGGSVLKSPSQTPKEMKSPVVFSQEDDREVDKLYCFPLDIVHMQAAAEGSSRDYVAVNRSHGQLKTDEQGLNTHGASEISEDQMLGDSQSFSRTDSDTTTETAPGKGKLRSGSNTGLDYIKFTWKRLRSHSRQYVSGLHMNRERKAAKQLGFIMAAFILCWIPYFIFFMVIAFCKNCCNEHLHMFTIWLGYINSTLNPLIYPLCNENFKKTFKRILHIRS
Sequence of 5-hydroxytryptamine receptor 2A (Homo sapiens) (P28223 whole entry): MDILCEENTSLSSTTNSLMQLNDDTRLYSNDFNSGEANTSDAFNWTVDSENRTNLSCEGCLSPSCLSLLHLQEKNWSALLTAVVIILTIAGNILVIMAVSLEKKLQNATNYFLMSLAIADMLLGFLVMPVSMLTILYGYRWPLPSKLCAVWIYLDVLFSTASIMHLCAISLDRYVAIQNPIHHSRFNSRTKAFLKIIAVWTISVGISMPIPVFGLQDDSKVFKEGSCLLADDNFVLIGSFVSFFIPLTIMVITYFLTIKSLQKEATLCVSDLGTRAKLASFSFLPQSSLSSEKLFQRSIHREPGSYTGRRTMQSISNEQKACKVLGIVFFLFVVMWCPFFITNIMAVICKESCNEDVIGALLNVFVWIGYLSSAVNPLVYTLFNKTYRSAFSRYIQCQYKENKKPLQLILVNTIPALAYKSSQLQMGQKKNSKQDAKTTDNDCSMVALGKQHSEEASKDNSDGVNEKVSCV
Sequence of Prostaglandin G/H synthase 1 (Homo sapiens) (P23219 whole entry): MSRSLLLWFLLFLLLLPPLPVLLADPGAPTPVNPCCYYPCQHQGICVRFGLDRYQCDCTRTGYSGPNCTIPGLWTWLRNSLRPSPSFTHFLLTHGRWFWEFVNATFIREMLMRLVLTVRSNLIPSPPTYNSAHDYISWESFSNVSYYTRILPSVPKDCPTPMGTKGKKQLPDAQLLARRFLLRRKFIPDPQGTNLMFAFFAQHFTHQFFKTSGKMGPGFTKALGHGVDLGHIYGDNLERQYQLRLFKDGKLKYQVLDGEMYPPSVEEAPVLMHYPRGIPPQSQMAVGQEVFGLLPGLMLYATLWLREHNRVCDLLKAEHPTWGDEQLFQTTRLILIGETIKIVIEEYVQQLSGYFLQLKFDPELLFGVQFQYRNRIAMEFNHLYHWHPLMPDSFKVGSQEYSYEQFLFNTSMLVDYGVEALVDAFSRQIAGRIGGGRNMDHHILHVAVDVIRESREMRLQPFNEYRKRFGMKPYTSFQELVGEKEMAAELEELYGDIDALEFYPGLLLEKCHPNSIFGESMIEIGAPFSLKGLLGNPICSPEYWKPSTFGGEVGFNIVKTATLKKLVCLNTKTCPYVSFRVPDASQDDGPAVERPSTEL
Sequence of 5-hydroxytryptamine receptor 1B (Homo sapiens) (P28222 whole entry): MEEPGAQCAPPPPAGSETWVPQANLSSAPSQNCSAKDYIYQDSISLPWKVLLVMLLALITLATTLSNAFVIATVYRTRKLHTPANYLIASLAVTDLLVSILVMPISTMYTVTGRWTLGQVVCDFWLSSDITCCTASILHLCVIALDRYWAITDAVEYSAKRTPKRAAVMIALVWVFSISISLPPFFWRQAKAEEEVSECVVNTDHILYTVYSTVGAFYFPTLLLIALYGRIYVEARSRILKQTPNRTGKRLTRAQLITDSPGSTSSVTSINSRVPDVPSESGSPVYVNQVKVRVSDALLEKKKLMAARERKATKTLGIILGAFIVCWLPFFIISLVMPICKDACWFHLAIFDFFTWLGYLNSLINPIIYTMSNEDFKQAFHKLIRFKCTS
Sequence of Alpha-1A adrenergic receptor (Homo sapiens) (P35348 whole entry): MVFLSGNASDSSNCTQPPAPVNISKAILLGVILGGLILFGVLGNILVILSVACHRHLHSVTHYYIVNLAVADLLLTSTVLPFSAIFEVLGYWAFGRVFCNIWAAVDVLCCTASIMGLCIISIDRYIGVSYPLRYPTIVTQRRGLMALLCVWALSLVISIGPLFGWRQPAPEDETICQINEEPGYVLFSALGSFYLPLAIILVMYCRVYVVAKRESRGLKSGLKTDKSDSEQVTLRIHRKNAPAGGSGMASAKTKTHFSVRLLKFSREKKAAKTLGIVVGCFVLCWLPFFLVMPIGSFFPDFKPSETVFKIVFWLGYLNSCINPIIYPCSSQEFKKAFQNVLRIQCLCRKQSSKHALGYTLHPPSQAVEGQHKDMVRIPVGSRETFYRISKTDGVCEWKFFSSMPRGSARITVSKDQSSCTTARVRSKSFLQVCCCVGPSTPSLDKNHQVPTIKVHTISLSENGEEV
Sequence of cGMP-inhibited 3',5'-cyclic phosphodiesterase 3A (Homo sapiens) (Q14432 whole entry): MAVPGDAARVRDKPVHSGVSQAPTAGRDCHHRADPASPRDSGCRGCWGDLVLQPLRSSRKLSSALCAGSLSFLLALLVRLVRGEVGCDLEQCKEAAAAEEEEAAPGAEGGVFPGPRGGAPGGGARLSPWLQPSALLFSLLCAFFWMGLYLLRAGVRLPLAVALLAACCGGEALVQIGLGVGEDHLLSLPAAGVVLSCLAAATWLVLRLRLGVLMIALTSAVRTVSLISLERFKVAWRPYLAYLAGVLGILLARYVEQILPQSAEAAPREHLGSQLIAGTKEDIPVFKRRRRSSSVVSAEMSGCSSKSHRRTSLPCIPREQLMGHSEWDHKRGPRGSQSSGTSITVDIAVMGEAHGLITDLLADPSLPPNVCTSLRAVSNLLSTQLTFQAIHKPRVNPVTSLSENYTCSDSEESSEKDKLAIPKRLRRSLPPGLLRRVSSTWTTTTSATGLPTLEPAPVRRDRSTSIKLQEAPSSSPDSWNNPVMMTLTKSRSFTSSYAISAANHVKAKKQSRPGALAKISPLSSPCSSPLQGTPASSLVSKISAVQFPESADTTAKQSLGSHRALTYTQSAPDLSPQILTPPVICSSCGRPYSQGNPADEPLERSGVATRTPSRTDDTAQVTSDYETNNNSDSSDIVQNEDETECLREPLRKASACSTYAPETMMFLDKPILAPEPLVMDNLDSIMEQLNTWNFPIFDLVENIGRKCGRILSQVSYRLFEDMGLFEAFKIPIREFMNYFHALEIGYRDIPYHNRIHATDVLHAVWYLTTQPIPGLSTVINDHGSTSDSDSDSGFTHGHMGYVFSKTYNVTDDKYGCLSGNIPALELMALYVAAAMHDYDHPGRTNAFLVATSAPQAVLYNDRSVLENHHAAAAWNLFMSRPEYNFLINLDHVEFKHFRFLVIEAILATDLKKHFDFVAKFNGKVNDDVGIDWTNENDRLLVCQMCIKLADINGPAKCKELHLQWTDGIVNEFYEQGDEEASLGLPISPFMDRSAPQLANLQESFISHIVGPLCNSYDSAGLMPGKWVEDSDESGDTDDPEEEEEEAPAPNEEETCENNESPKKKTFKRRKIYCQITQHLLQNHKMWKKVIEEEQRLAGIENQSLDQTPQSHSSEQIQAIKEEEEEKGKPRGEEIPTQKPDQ
Sequence of Beta-2 adrenergic receptor (Homo sapiens) (P07550 whole entry, looked up): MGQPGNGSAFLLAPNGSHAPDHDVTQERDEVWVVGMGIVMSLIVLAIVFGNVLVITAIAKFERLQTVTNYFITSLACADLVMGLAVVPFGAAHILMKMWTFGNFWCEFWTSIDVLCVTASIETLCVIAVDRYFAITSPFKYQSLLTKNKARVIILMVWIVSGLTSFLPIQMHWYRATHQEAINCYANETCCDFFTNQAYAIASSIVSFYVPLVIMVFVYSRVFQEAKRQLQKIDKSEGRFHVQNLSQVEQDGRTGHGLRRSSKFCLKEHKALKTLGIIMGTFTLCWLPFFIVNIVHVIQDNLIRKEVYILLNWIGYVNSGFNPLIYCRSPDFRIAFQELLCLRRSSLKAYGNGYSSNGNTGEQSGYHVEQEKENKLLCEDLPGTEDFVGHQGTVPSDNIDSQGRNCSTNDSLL
Sequence of Alpha-2A adrenergic receptor (Homo sapiens) (P08913 whole entry): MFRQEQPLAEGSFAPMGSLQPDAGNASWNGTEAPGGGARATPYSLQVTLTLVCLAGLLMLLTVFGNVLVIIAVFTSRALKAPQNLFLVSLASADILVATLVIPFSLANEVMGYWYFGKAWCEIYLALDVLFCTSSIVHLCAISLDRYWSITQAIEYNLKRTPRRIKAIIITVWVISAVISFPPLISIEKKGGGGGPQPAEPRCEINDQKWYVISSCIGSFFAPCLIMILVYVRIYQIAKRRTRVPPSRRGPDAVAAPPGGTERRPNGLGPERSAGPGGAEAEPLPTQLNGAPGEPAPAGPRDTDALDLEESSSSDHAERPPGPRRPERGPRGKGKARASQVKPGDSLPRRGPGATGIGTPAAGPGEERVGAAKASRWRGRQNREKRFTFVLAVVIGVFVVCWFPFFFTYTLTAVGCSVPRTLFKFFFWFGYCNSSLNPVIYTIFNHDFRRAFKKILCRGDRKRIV

Q: Which Tmax at 1 h [1] does the source give for `O=C(c1ccc(F)c(Cl)c1)N1CCC(F)(CNCCOc2ccccn2)CC1` here?
A: The Tmax at 1 h was 15 min.

Q: And the EC [2]?
A: The EC was 17.2 ng/mL.

Q: What about the inhibition [3] of the same compound?
A: The inhibition was 99.7%.

Q: What about the inhibition [4] of the same compound?
A: Its inhibition is 94.3%.

Q: And the inhibition [5]?
A: The inhibition was 3.8%.

Q: And the inhibition [6]?
A: Its inhibition is -3.1%.

Q: What about the inhibition [7] of the same compound?
A: Its inhibition is 38.2%.

Q: What about the inhibition (D(2) dopamine receptor) of the same compound?
A: The inhibition was 91.3%.

Q: And the inhibition [8]?
A: Its inhibition is -0.5%.

Q: What about the inhibition [9] of the same compound?
A: Its inhibition is 12.9%.

Q: And the inhibition [10]?
A: The inhibition was 8.8%.

Q: What about the inhibition [11] of the same compound?
A: The inhibition was 42.9%.

Q: And the inhibition [12]?
A: The inhibition was 7%.

Q: And the inhibition [13]?
A: The inhibition was -2.9%.

Q: And the inhibition [14]?
A: Its inhibition is -9.1%.

Q: What about the inhibition [15] of the same compound?
A: Its inhibition is 0.9%.

Q: What about the inhibition (Homo sapiens [16]) of the same compound?
A: Its inhibition is -1.8%.

Q: And the inhibition (Homo sapiens [17])?
A: Its inhibition is 18.2%.

Q: And the inhibition (Homo sapiens [18])?
A: Its inhibition is 48.8%.

Q: What about the inhibition [19] of the same compound?
A: The inhibition was 18.2%.

Q: What about the inhibition [20] of the same compound?
A: Its inhibition is 11.9%.

Q: What about the inhibition [21] of the same compound?
A: Its inhibition is -9.2%.

Q: And the inhibition [22]?
A: Its inhibition is -3.9%.

Q: And the microsomal CLint at 0.1 µM [23]?
A: The microsomal CLint at 0.1 µM was under 115 µL/min/mg.

Q: What about the fraction unbound [24] of the same compound?
A: The fraction unbound was 0.068.

Q: And the Activity [25]?
A: Its Activity is under 50%.

Q: What about the Activity [26] of the same compound?
A: The Activity was under 50%.

Q: What about the Activity [27] of the same compound?
A: Its Activity is under 50%.

Q: What about the Time [28] of the same compound?
A: Its Time is 15 min.

Q: What about the Cmax at 1 h [29] of the same compound?
A: Its Cmax at 1 h is 124 ng/mL.

Q: And the Vd/F at 1 h [30]?
A: Its Vd/F at 1 h is 35.9 L/kg.

Q: What about the Activity (Rattus norvegicus [31]) of the same compound?
A: The Activity was “Active”.

Q: And the minimal effective dose (Rattus norvegicus [32])?
A: The minimal effective dose was 0.16 mg/kg.

Q: What about the Activity [33] of the same compound?
A: Its Activity is “Non-Toxic”.
